From PMC7158045 (BMC Plant Biology, 2020)
Structures can show the parent of a compound that is named as a salt.

Key:
Assay in all cases: biochemical
ZmDRIK1-K217-S514 = biological target: T1, ZmDRIK1-K217-S514 (Zea mays, UniProt C0P4K9); conditions: read-out: dTm B, sheet ZmDRIK1-K217-S514;; DSF, Boltzmann fit, 0.1% DMSO
T1 construct: kinase domain, K217-S514
T1 sequence (C0P4K9 1-514): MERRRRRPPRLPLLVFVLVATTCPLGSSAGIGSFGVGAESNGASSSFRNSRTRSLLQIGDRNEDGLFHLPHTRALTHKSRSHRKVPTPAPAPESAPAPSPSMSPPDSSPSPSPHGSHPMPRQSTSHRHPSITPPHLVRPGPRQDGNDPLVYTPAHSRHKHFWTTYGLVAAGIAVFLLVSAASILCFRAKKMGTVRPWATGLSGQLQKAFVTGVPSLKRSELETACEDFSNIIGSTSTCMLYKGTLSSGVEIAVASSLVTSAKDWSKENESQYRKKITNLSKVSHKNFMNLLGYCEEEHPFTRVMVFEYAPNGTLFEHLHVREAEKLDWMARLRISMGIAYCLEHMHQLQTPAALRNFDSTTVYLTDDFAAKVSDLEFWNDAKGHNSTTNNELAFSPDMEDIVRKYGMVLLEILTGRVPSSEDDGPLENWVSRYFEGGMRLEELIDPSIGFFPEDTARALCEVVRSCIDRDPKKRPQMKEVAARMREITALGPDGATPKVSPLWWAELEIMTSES

[1] = biological target: T2, ZmDRIK1 (DROUGHT RESPONSIVE INACTIVE KINASE 1), kinase domain (Zea mays, UniProt C0P4K9); conditions: read-out: dTm B, sheet ZmDRIK1-R187-S514;; DSF, Boltzmann fit, 0.1% DMSO
T2 construct: gene ZEAMMB73_Zm00001d028770; ZmDRIK1-KD R187-S514 (kinase domain)
T2 sequence (C0P4K9 187-514): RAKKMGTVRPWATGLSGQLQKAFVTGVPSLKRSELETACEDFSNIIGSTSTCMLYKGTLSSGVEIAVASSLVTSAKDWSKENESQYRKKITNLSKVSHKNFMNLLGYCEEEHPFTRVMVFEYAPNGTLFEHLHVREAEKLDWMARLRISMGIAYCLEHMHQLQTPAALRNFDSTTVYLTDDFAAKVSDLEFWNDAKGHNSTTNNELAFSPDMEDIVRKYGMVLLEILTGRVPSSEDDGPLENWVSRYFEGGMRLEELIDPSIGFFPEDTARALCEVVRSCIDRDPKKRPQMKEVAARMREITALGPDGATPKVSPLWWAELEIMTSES

ZmDRIK1-R187-P492 = biological target: T3, ZmDRIK1-R187-P492 (Zea mays, UniProt C0P4K9); conditions: read-out: dTm B, DSF, Boltzmann fit, 0.1% DMSO
T3 construct: kinase domain, R187-P492
T3 sequence (C0P4K9 1-514): T1 sequence (C0P4K9 1-514)

ZmDRIK1-K217-P492 = biological target: T4, ZmDRIK1-K217-P492 (Zea mays, UniProt C0P4K9); conditions: read-out: dTm B, sheet ZmDRIK1-K217-P492;; DSF, Boltzmann fit, 0.1% DMSO
T4 construct: kinase domain, K217-P492
T4 sequence (C0P4K9 1-514): T1 sequence (C0P4K9 1-514)

| Compound | ΔTm at 10 µM (ZmDRIK1-K217-S514) | ΔTm at 10 µM [1] | ΔTm at 10 µM (ZmDRIK1-R187-P492) | ΔTm at 10 µM (ZmDRIK1-K217-P492) |
| --- | --- | --- | --- | --- |
| COc1ccc(Cl)cc1NC(=O)Nc1cc(C)nc2ccccc12 [PQ 401] | -0.394 °C | -1.59 °C | -0.365 °C | -0.962 °C |
| NC(=O)c1cnc(N[C@@H]2CCCC[C@@H]2N)nc1Nc1cccc(-n2nccn2)c1 [PRT062607 (P505-15)] | -0.551 °C | -0.709 °C | -0.212 °C | -0.348 °C |
| C1=N/C2=N/c3ccc(OCCN4CCCC4)c(c3)COC/C=C/COCc3cccc(c3)C(=C1)N2 [Pacritinib (SB1518)] | 0.03 °C | 0.0273 °C | -0.0853 °C | 1.04 °C |
| CC(=O)c1c(C)c2cnc(Nc3ccc(N4CCNCC4)cn3)nc2n(C2CCCC2)c1=O [Palbociclib (PD-0332991) HCl] | -0.31 °C | -0.906 °C | -0.154 °C | -0.775 °C |
| COc1ccc(COc2cc3oc(=O)c4cc(C(C)O)ccc4c3cc2OC)cc1 (centres unmarked) [Palomid 529 (P529)] | -0.134 °C | -0.623 °C | -0.229 °C | -0.76 °C |
| CCOc1cc2ncc(C#N)c(Nc3ccc(F)c(Cl)c3)c2cc1NC(=O)/C=C/CN(C)C [Pelitinib (EKB-569)] | -0.496 °C | -0.77 °C | -0.494 °C | -0.854 °C |
| N=C(N)NC(=N)NCCc1ccccc1 [Phenformin HCl] | -0.473 °C | -0.596 °C | -0.125 °C | -1.3 °C |
| Oc1cc(O)cc(/C=C/c2ccc(O)c(O)c2)c1 [Piceatannol] | 1.1 °C | -0.69 °C | 0.733 °C | -0.567 °C |
| O=C(NC[C@H](O)CO)c1ccncc1Nc1ccc(I)cc1F [Pimasertib (AS-703026)] | -0.594 °C | -0.651 °C | -0.33 °C | -0.841 °C |
| Cc1ccc(C(=O)Nc2ccc(CN3CCN(C)CC3)c(C(F)(F)F)c2)cc1C#Cc1cnc2cccnn12 [Ponatinib (AP24534)] | -0.482 °C | -0.951 °C | -0.39 °C | -0.505 °C |
| O=c1c(O)c(-c2ccc(O)c(O)c2)oc2cc(O)cc(O)c12 [Quercetin] | -0.0338 °C | -0.63 °C | -0.357 °C | -1.11 °C |
| CC(C)(C)c1cc(NC(=O)Nc2ccc(-c3cn4c(n3)sc3cc(OCCN5CCOCC5)ccc34)cc2)no1 [Quizartinib (AC220)] | -1.21 °C | -11.5 °C | -3.69 °C | -4.77 °C |
| CO[C@H]1C[C@@H]2CC[C@@H](C)[C@@](O)(O2)C(=O)C(=O)N2CCCC[C@H]2C(=O)O[C@H]([C@H](C)C[C@@H]2CC[C@@H](O)[C@H](OC)C2)CC(=O)[C@H](C)/C=C(\C)[C@@H](O)[C@@H](OC)C(=O)[C@H](C)C[C@H](C)/C=C/C=C/C=C/1C [Rapamycin (Sirolimus)] | -0.483 °C | -1.41 °C | -1.03 °C | -1.45 °C |

Next, values leading:

| ΔTm at 10 µM (ZmDRIK1-K217-S514) | ΔTm at 10 µM [1] | ΔTm at 10 µM (ZmDRIK1-R187-P492) | ΔTm at 10 µM (ZmDRIK1-K217-P492) | Compound |
| --- | --- | --- | --- | --- |
| -0.33 °C | -1.1 °C | -0.0775 °C | -1.13 °C | COc1cccc(-c2cc(=O)c3ccccc3o2)c1N [PD98059] |
| 0.721 °C | -0.108 °C | 0.724 °C | -0.0923 °C | C=CC(=O)Nc1ccc2ncnc(Nc3cccc(Br)c3)c2c1 [PD168393] |
| -0.228 °C | -0.711 °C | -0.212 °C | -0.962 °C | CCN(CC)CCCCNc1ncc2cc(-c3cc(OC)cc(OC)c3)c(NC(=O)NC(C)(C)C)nc2n1 [PD173074] |
| -0.595 °C | -1.36 °C | -0.72 °C | -2.14 °C | CSc1cccc(Nc2ncc3cc(-c4c(Cl)cccc4Cl)c(=O)n(C)c3n2)c1 [PD173955] |
| -0.114 °C | -0.924 °C | 0.042 °C | -1.33 °C | O=C(NOCC(O)CO)c1cc(Br)c(F)c(F)c1Nc1ccc(I)cc1F (centres unmarked) [PD318088] |
| -0.328 °C | -0.63 °C | -0.228 °C | -1.09 °C | Cn1cc(-c2[nH]c3cc(NC(=O)[C@H](N)C4CCCCC4)cc4c3c2C=NNC4=O)cn1 [PF-477736] |
| 0.0316 °C | -0.638 °C | 0.148 °C | -1.45 °C | CS(=O)(=O)c1cccc(CNc2nc(Nc3ccc4c(c3)CCC(=O)N4)ncc2C(F)(F)F)c1 [PF-573228] |
| -0.258 °C | -0.774 °C | -0.393 °C | -0.748 °C | Cc1nc(Nc2n[nH]c3c2CN(C(=O)N[C@H](CN(C)C)c2ccccc2)C3(C)C)c2sccc2n1 [PF-3758309] |
| -0.0615 °C | -0.576 °C | -0.0503 °C | -0.909 °C | OCCn1cc(-c2cnc3nnn(Cc4ccc5ncccc5c4)c3n2)cn1 [PF-04217903] |
| -0.31 °C | -0.814 °C | -0.18 °C | -0.953 °C | COc1ccc(-c2cc3c(C)nc(N)nc3n([C@H]3CC[C@H](OCCO)CC3)c2=O)cn1 [PF-04691502] |
| -0.43 °C | -0.839 °C | -0.28 °C | -0.248 °C | CNC(=O)c1ccc(C)c(-n2c(C)cc(OCc3ccc(F)cc3F)c(Br)c2=O)c1 [PH-797804] |
| -0.843 °C | -0.988 °C | -0.648 °C | -1.25 °C | Cc1[nH]c(/C=C2\C(=O)Nc3ccc(S(=O)(=O)Cc4c(Cl)cccc4Cl)cc32)c(C)c1C(=O)N1CCC[C@@H]1CN1CCCC1 [PHA-665752] |
| -0.247 °C | -0.776 °C | -0.18 °C | -0.924 °C | CCc1cccc(CC)c1NC(=O)N1Cc2[nH]nc(NC(=O)c3ccc(N4CCN(C)CC4)cc3)c2C1 [PHA-680632] |
| -0.125 °C | -0.701 °C | -0.213 °C | -0.984 °C | O=C1NCCc2[nH]c(-c3ccncc3)cc21 [PHA-767491] |
| -0.312 °C | -0.826 °C | -0.158 °C | -0.634 °C | CC(C)CC(=O)Nc1n[nH]c2c1CN(C(=O)C1CCN(C)CC1)C2(C)C [PHA-793887] |
| -0.296 °C | -1.24 °C | -0.255 °C | -1.79 °C | CCCCCCCCCCCCc1ccc(S(=O)(=O)Nc2nncs2)cc1 [PHT-427] |
| -0.559 °C | -0.608 °C | -0.366 °C | -1.14 °C | Oc1cccc(-c2nc(N3CCOCC3)c3oc4ncccc4c3n2)c1 [PI-103] |
| -0.221 °C | -0.734 °C | -0.296 °C | -1.46 °C | Cc1ccc([N+](=O)[O-])cc1S(=O)(=O)N(C)/N=C/c1cnc2ccc(Br)cn12 [PIK-75] |
| -0.175 °C | -1.08 °C | -0.0815 °C | -0.556 °C | CC(=O)Nc1nc(C)c(-c2ccc(Cl)c(S(=O)(=O)NCCO)c2)s1 [PIK-93] |
| -0.478 °C | -1.27 °C | -0.12 °C | -0.653 °C | CCCS(=O)(=O)Nc1ccc(F)c(C(=O)c2c[nH]c3ncc(Cl)cc23)c1F [PLX-4720] |
| -0.253 °C | -0.972 °C | -0.136 °C | -1.01 °C | Cc1ccc(-c2nn(C(C)(C)C)c3ncnc(N)c23)cc1 [PP1] |
| -0.458 °C | -0.713 °C | -0.394 °C | -1.25 °C | CC(C)(C)n1nc(-c2ccc(Cl)cc2)c2c(N)ncnc21 [PP2] |
| -0.432 °C | -0.595 °C | -0.369 °C | -1.06 °C | Nc1ncnc2c1c(-c1cnc3[nH]ccc3c1)nn2C1CCCC1 [PP121] |
| -0.339 °C | -0.939 °C | -0.297 °C | -1.09 °C | COc1ccc(F)c(F)c1C(=O)c1cnc(NC2CCN(S(C)(=O)=O)CC2)nc1N [R547] |
| -0.42 °C | -0.456 °C | 0.716 °C | -0.48 °C | O=C(NCc1cccc(O)c1)Nc1nc(-c2ccncc2)cs1 [RKI-1447] |
